Experimental data reported in US12692236B2, “Small molecule modulators of sigma-1 and sigma-2 receptors and uses thereof” (Northwestern University, priority 2018, dated 2026).

Tests used:
sigma-1 receptor = sigma-1 receptor (Homo sapiens, UniProt Q99720); experiment: sigma-1 receptor binding affinity (Ki); details: for Ki: read-out: Ki (nM) Sigma-1
sigma-2 receptor = sigma-2 receptor (Homo sapiens, UniProt Q5BJF2); experiment: sigma-2 receptor binding affinity (Ki); details: for Ki: read-out: Ki (nM) Sigma-2
Sequence of sigma-2 receptor (Q5BJF2 whole entry, species assumed): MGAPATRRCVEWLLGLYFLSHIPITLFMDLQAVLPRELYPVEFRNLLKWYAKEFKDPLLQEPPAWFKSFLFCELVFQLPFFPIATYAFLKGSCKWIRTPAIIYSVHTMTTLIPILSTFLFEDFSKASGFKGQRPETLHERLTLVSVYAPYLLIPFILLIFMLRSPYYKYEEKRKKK

Sequence of sigma-1 receptor (Q99720 whole entry, species assumed): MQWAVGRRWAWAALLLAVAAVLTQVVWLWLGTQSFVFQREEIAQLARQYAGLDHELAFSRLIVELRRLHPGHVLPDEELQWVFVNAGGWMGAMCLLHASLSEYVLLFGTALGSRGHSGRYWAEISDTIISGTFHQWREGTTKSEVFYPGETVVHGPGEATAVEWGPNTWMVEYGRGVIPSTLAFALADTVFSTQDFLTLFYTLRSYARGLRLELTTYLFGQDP

SMILES: NC(=O)c1ccc(-n2nc3c(c2C(=O)N2CCCCC2)CC(NCCc2ccccc2)CC3)cc1 (stereo not shown) [compound 201242, 4-(5-(Phenethylamino)-3-(piperidine-1-carbonyl)-4,5,6,7-tetrahydro-2H-indazol-2-yl)benzamide]
- Ki (sigma-1 receptor): 588 nM
- Ki (sigma-2 receptor): > 10000 nM

SMILES: O=C(c1nn(-c2ccccc2)c2c1CC(NCCc1ccc(F)cc1)CC2)N1CCCCC1 (stereo not shown) [compound 201667, (5-((4-Fluorophenethyl)amino)-1-phenyl-4,5,6,7-tetrahydro-1H-indazol-3-yl)(piperidin-1-yl)methanone]
- selectivity sigma-1 versus sigma-2 (in words) (sigma-1 receptor): equipotent inhibitor against both sigma receptors
- Ki (sigma-1 receptor): 131 nM
- Ki (sigma-2 receptor): 91 nM

SMILES: C=Cc1ccc(-n2nc3c(c2C(=O)N2CCCCC2)CC(NCCc2ccccc2)CC3)cc1 (stereo not shown) [compound 201591, (5-(phenethylamino)-2-(4-vinylphenyl)-4,5,6,7-tetrahydro-2H-indazol-3-yl)(piperidin-1-yl)methanone]
- Ki (sigma-1 receptor): 96 nM
- Ki (sigma-2 receptor): 32 nM

SMILES: O=C(c1c2c(nn1-c1ccccc1)CCC(NCCc1ccc(C(F)(F)F)cc1)C2)N1CCCCC1 (stereo not shown) [compound 201683, (2-Phenyl-5-((4-(trifluoromethyl)phenethyl)amino)-4,5,6,7-tetrahydro-2H-indazol-3-yl)(piperidin-1-yl)methanone]
- Ki (sigma-1 receptor): 213 nM
- Ki (sigma-2 receptor): > 10000 nM

SMILES: NC(=O)c1ccc(-n2nc(C(=O)N3CCCCC3)c3c2CCC(NCCc2ccccc2)C3)cc1 (stereo not shown) [compound 201243, 4-(5-(Phenethylamino)-3-(piperidine-1-carbonyl)-4,5,6,7-tetrahydro-1H-indazol-1-yl)benzamide]
- Ki (sigma-1 receptor): 465 nM
- Ki (sigma-2 receptor): 561 nM

SMILES: CCCn1nc(C(=O)N2CCCCC2)c2c1CCC(N1CCc3ccccc3C1)C2 (stereo not shown) [compound 196338, (5-(3,4-dihydroisoquinolin-2(1H)-yl)-1-propyl-4,5,6,7-tetrahydro-1H-indazol-3-yl)(piperidin-1-yl)methanone]
- activity against sigma-2 (in words) (sigma-2 receptor): retained sigma-2 activity
- selectivity of sigma-2 ligands against sigma-1 (in words) (sigma-2 receptor): excellent selectivity
- Ki (sigma-2 receptor): 31 nM

SMILES: O=C(c1c2c(nn1-c1ccccc1)CCC(NCc1ccccc1)C2)N1CCCCC1 (stereo not shown) [compound 201676, (5-(Benzylamino)-2-phenyl-4,5,6,7-tetrahydro-2H-indazol-3-yl)(piperidin-1-yl)methanone]
- Ki (sigma-1 receptor): 38 nM
- Ki (sigma-2 receptor): 139 nM

SMILES: CCCn1nc(C(=O)N2CCCCC2)c2c1CCC(NCC1CCOCC1)C2 (stereo not shown) [compound 200642, Piperidin-1-yl(1-propyl-5-(((tetrahydro-2H-pyran-4-yl)methyl)amino)-4,5,6,7-tetrahydro-1H-indazol-3-yl)methanone]
- Ki (sigma-2 receptor): 710 nM

SMILES: CCCn1nc(C(=O)N(C)C)c2c1CCC(NS(=O)(=O)c1ccc(F)cc1)C2 (stereo not shown) [compound 200629, 5-((4-fluorophenyl)sulfonamido)-N,N-dimethyl-1-propyl-4,5,6,7-tetrahydro-1H-indazole-3-carboxamide]
- activity against sigma-1 (in words) (sigma-1 receptor): did not restore the activity
- Ki (sigma-1 receptor): > 10000 nM
- activity against sigma-2 (in words) (sigma-2 receptor): did not restore the activity
- Ki (sigma-2 receptor): > 10000 nM

SMILES: CCCn1nc(C(=O)N(C)C)c2c1CCC(NCc1ccc(Cl)cc1)C2 (stereo not shown) [compound 200875, 5-((4-chlorobenzyl)amino)-N,N-dimethyl-1-propyl-4,5,6,7-tetrahydro-1H-indazole-3-carboxamide]
- activity against sigma-1 (in words) (sigma-1 receptor): complete loss of activity
- activity against sigma-2 (in words) (sigma-2 receptor): moderate inhibition
- Ki (sigma-2 receptor): 1020 nM

SMILES: CCCn1nc(C(=O)N(C)C)c2c1CCC(SCc1ccc(F)cc1)C2 (stereo not shown) [compound 200624, 5-((4-fluorobenzyl)thio)-N,N-dimethyl-1-propyl-4,5,6,7-tetrahydro-1H-indazole-3-carboxamide]
- activity against sigma-1 (in words) (sigma-1 receptor): completely lost
- Ki (sigma-1 receptor): > 10000 nM
- activity against sigma-2 (in words) (sigma-2 receptor): completely lost
- Ki (sigma-2 receptor): > 10000 nM

SMILES: O=C(c1nn(-c2ccccc2)c2c1CC(NCc1ccccc1)CC2)N1CCCCC1 (stereo not shown) [compound 201665, (5-(Benzylamino)-1-phenyl-4,5,6,7-tetrahydro-1H-indazol-3-yl)(piperidin-1-yl)methanone]
- Ki (sigma-1 receptor): 710 nM
- Ki (sigma-2 receptor): 492 nM

SMILES: O=C(c1nn(-c2ccccc2)c2c1CC(NCCc1ccc(C(F)(F)F)cc1)CC2)N1CCCCC1 (stereo not shown) [compound 201684, (1-Phenyl-5-((4-(trifluoromethyl)phenethyl)amino)-4,5,6,7-tetrahydro-1H-indazol-3-yl)(piperidin-1-yl)methanone]
- Ki (sigma-1 receptor): 337 nM
- Ki (sigma-2 receptor): > 10000 nM

SMILES: CCCn1nc(C(=O)N2CCCCC2)c2c1CCC(N1CCC(N(C)C)CC1)C2 (stereo not shown) [compound 196331, (5-(4-(dimethylamino)piperidin-1-yl)-1-propyl-4,5,6,7-tetrahydro-1H-indazol-3-yl)(piperidin-1-yl)methanone]
- Ki (sigma-1 receptor): > 10000 nM
- Ki (sigma-2 receptor): > 10000 nM

SMILES: O=C(c1nn(-c2ccccc2)c2c1CC(NCCc1ccncc1)CC2)N1CCCCC1 (stereo not shown) [compound 201666, (1-Phenyl-5-((2-(pyridin-4-yl)ethyl)amino)-4,5,6,7-tetrahydro-1H-indazol-3-yl)(piperidin-1-yl)methanone]
- Ki (sigma-1 receptor): 1030 nM
- Ki (sigma-2 receptor): 517 nM

SMILES: CCCn1nc(C(=O)N2CCCCC2)c2c1CCC(N(C)Cc1ccc(F)cc1)C2 (stereo not shown) [compound 196339, (5-((4-fluorobenzyl)(methyl)amino)-1-propyl-4,5,6,7-tetrahydro-1H-indazol-3-yl)(piperidin-1-yl)methanone]
- selectivity of sigma-2 ligands against sigma-1 (in words) (sigma-2 receptor): excellent selectivity
- Ki (sigma-2 receptor): 19 nM

SMILES: CCCn1nc(C(=O)N2CCCCC2)c2c1CCC(NCCNC(=N)N)C2 (stereo not shown) [compound 200829, 2-(2-((3-(Piperidine-1-carbonyl)-1-propyl-4,5,6,7-tetrahydro-1H-indazol-5-yl)amino)ethyl)guanidine]
- activity against sigma-2 (in words) (sigma-2 receptor): decreased activity
- Ki (sigma-2 receptor): 2160 nM

SMILES: CCCn1nc(C(=O)N2CCCCC2)c2c1CCC(NCc1ccc(S(N)(=O)=O)cc1)C2 (stereo not shown) [compound 200652, 4-(((3-(Piperidine-1-carbonyl)-1-propyl-4,5,6,7-tetrahydro-1H-indazol-5-yl)amino)methyl)benzenesulfonamide]
- Ki (sigma-2 receptor): 439 nM

SMILES: CCCn1nc(C(=O)N2CCCCC2)c2c1CCC(N1CCN(C)CC1)C2 (stereo not shown) [compound 196337, (5-(4-methylpiperazin-1-yl)-1-propyl-4,5,6,7-tetrahydro-1H-indazol-3-yl)(piperidin-1-yl)methanone]
- Ki (sigma-1 receptor): 192 nM
- activity against sigma-2 (in words) (sigma-2 receptor): great overall potency
- selectivity for sigma-2 over sigma-1 (sigma-2 receptor): about 5 fold
- Ki (sigma-2 receptor): 34 nM

SMILES: CCCn1nc(C(=O)N(C)C)c2c1CCC(NC(=O)c1ccc(F)cc1)C2 (stereo not shown) [compound 2000623, 5-(4-fluorobenzamido)-N,N-dimethyl-1-propyl-4,5,6,7-tetrahydro-1H-indazole-3-carboxamide]
- activity against sigma-1 (in words) (sigma-1 receptor): did not restore the activity
- Ki (sigma-1 receptor): > 10000 nM
- activity against sigma-2 (in words) (sigma-2 receptor): did not restore the activity
- Ki (sigma-2 receptor): > 10000 nM

SMILES: CCCn1nc(C(=O)N(C)C)c2c1CCC(NCc1ccc(OC)cc1OC)C2 (stereo not shown) [compound 200874, 5-((2,4-dimethoxybenzyl)amino)-N,N-dimethyl-1-propyl-4,5,6,7-tetrahydro-1H-indazole-3-carboxamide]
- Ki (sigma-2 receptor): 839 nM

SMILES: O=C(c1c2c(nn1-c1ccccc1)CCC(NCCc1ccncc1)C2)N1CCCCC1 (stereo not shown) [compound 201670, (2-Phenyl-5-((2-(pyridin-4-yl)ethyl)amino)-4,5,6,7-tetrahydro-2H-indazol-3-yl)(piperidin-1-yl)methanone]
- Ki (sigma-1 receptor): 226 nM
- Ki (sigma-2 receptor): 296 nM

SMILES: O=C(c1c2c(nn1-c1ccc(F)cc1)CCC(NCc1ccc(F)cc1)C2)N1CCCCC1 (stereo not shown) [compound 201117, (5-((4-fluorobenzyl)amino)-2-(4-fluorophenyl)-4,5,6,7-tetrahydro-2H-indazol-3-yl)(piperidin-1-yl)methanone]
- selectivity of sigma-1 ligand against sigma-2 (sigma-1 receptor): over 500 ×
- Ki (sigma-1 receptor): 17 nM

SMILES: O=C(c1nn(Cc2ccccc2)c2c1CC(NCCc1ccncc1)CC2)N1CCCCC1 (stereo not shown) [compound 201114, (1-benzyl-5-((2-(pyridin-4-yl)ethyl)amino)-4,5,6,7-tetrahydro-1H-indazol-3-yl)(piperidin-1-yl)methanone]
- Ki (sigma-1 receptor): 249 nM
- Ki (sigma-2 receptor): > 10000 nM

SMILES: CCCn1nc(C(=O)N2CCCCC2)c2c1CCC(Nc1ccc(N3CCCCC3)cc1)C2 (stereo not shown) [compound 200637, Piperidin-1-yl(5-((4-(piperidin-1-yl)phenyl)amino)-1-propyl-4,5,6,7-tetrahydro-1H-indazol-3-yl)methanone]
- Ki (sigma-2 receptor): 787 nM

SMILES: CCCn1nc(C(=O)N2CCCCC2)c2c1CCC(NCCN1CCCCC1)C2 (stereo not shown) [compound 200640, Piperidin-1-yl(5-((2-(piperidin-1-yl)ethyl)amino)-1-propyl-4,5,6,7-tetrahydro-1H-indazol-3-yl)methanone]
- Ki (sigma-2 receptor): 434 nM

SMILES: CCCn1nc(C(=O)N2CCCCC2)c2c1CCC(NCCCNC)C2 (stereo not shown) [compound 200820, (5-((3-(Methylamino)propyl)amino)-1-propyl-4,5,6,7-tetrahydro-1H-indazol-3-yl)(piperidin-1-yl)methanone]
- Ki (sigma-2 receptor): 1990 nM

SMILES: CCCn1nc(C(=O)N2CCCCC2)c2c1CCC(NCCCN1CCCC1=O)C2 (stereo not shown) [compound 54120]
- Ki (sigma-2 receptor): 673 nM

SMILES: CCCn1nc(C(=O)N2CCCCC2)c2c1CCC(N1CCN(Cc3ccc(C#N)cc3)CC1)C2 (stereo not shown) [compound 200641, 4-((4-(3-(Piperidine-1-carbonyl)-1-propyl-4,5,6,7-tetrahydro-1H-indazol-5-yl)piperazin-1-yl)methyl)benzonitrile]
- Ki (sigma-2 receptor): 1100 nM

SMILES: CCCn1nc(C(=O)N2CCCCC2)c2c1CCC(N1CCC(c3ccncc3)CC1)C2 (stereo not shown) [compound 200639, Piperidin-1-yl(1-propyl-5-(4-(pyridin-4-yl)piperidin-1-yl)-4,5,6,7-tetrahydro-1H-indazol-3-yl)methanone]
- selectivity of sigma-2 ligands against sigma-1 (in words) (sigma-2 receptor): excellent selectivity
- Ki (sigma-2 receptor): 16 nM

SMILES: CCCn1nc(C(=O)N2CCCCC2)c2c1CCC(NCc1ccc(N3CCCCC3)cc1)C2 (stereo not shown) [compound 200647, Piperidin-1-yl(5-((4-(piperidin-1-yl)benzyl)amino)-1-propyl-4,5,6,7-tetrahydro-1H-indazol-3-yl)methanone]
- Ki (sigma-2 receptor): 169 nM
